Source: patent US10226509B2, “Lymphangiogenesis inhibitors for cancer and for graft survival” (TUFTS UNIVERSITY, priority 2014, dated 2019)
Entries after “also recorded” stand apart in the source; their conditions may differ.

B1: VEGF-C: lymphangiogenic growth factor used as positive control (protein)
chain: AHYNTEILKSIDNEWRKTQCMPREVCIDVGKEFGVATNTFFKPPCVSVYRCGGCCNSEGLQCMNTSTSYLSKTLFEITVPLSQGPKPVTISFANHTSCRCMSKLDVYRQVHSIIRR

What was measured:
[1] = test system: Gal-8-induced LEC sprouting; assay: LEC sprouting assay: Gal-8-induced sprouting with inhibitors or knockdown; assay type: cell-based, human; conditions: Gal-8 0.75 μM, 24 h; TDG 20 mM; LY294002 20 μM; U0126 20 μM; PD0325901 1 μM; Avastin 10 μg/ml; Obtustatin 4 μM; antibodies 20 μg/ml; siRNA-transfected LECs
Method: LEC spheroids were generated by seeding primary LECs at passage 4 or 5 in each well of 384-well hanging-drop plates (3D Biomatrix) in complete EGM-2 MV medium containing 0.25% methyl cellulose according to the manufacturer's instructions (750 cells/well). After 18 hours, LEC spheroids were collected, resuspended in serum-free EBM-2 basal medium, and mixed with collagen solution (PureCol collagen, Advanced BioMatrix, 2.2 mg/ml in M199 medium, pH adjusted to 7.4 with NaHCO3 and NaOH). Aliquots of the LEC spheroid/collagen mixture (250 μl/well of 48-well plate) were incubated in the presence or absence of various test agents for 24 hr. At the end of the incubation period, spheroids were stained with Calcein AM (Invitrogen, 1 μg/mL, 37° C., and 30 min). Fluorescent images were acquired using the EVOS FL cell imaging system, pixels were inverted for better visualization and cumulative length of each sprout was calculated. Results were expressed as fold change compared to corresponding controls. […] Test agents used included thiodigalactoside (10 to 50 mM, Carbosynth), 3′-sialyl lactose (2 to 10 mM, Carbosynth), 6′-sialyl lactose (2 to 10 mM, Carbosynth), LY294002 (20 μM, Abeam), U0126 (20 μM, Abeam), PD0325901 (1 μM, Selleckchem), human VEGFR-3-Fc chimera (10 μg/ml, R&D), human VEGFR-2-Fc chimera (10 μg/ml, R&D), Avastin (10 μg/ml, bevacizumab, Genentech/Roche), human control IgG (10 μg/ml, Southern Biotech), anti-human podoplanin functional grade antibody (10 μg/ml, eBioscience), and rat IgG2a κ isotype control functional grade antibody (10 μg/ml, eBioscience).
To determine the role of these pathways on Gal-8-induced lymphangiogenesis, LEC spheroids were stimulated with Gal-8 (0.75 μM) in the presence or absence of PI3K inhibitor (LY294002, 20 μM) and two different MEK inhibitors (U0126, 20 μM; PD0325901, 1 μM). After overnight treatment with Gal-8, accumulated sprout lengths were quantified.

[2] = test system: VEGF-A-induced LEC sprouting; assay: LEC sprouting assay: VEGF-A-induced sprouting; assay type: cell-based, human; conditions: VEGF-A 50 ng/ml; 10 μg/ml
Method: LEC spheroids were generated by seeding primary LECs at passage 4 or 5 in each well of 384-well hanging-drop plates (3D Biomatrix) in complete EGM-2 MV medium containing 0.25% methyl cellulose according to the manufacturer's instructions (750 cells/well). After 18 hours, LEC spheroids were collected, resuspended in serum-free EBM-2 basal medium, and mixed with collagen solution (PureCol collagen, Advanced BioMatrix, 2.2 mg/ml in M199 medium, pH adjusted to 7.4 with NaHCO3 and NaOH). Aliquots of the LEC spheroid/collagen mixture (250 μl/well of 48-well plate) were incubated in the presence or absence of various test agents for 24 hr. […] Fluorescent images were acquired using the EVOS FL cell imaging system, pixels were inverted for better visualization and cumulative length of each sprout was calculated. Results were expressed as fold change compared to corresponding controls. […]
In addition, investigations were performed to determine whether VEGF-A/VEGFR-2 pathway, which also promotes lymphangiogenesis, is involved in Gal-8-mediated lymphangiogenesis. LEC spheroids were stimulated with Gal-8 (0.75 μM) in the presence or absence of VEGFR-3-Fc, VEGFR-2-Fc (10 μg/ml), Avastin (bevacizumab) (10 μg/ml) or control IgG (10 μg/ml) for 24 hours and then accumulated sprout lengths were quantified. […]

mouse corneas [3] = assay: Mouse model of suture-induced inflammatory corneal lymphangiogenesis; assay type: in vivo; conditions: subconjunctival injections days 0, 2, 4, 6; TDG 200 mM; Gal-8N 15 μg; Prox1-EGFP mice
Description: The mouse model of suture-induced lymphangiogenesis was used as described in Cho, Y. K., et al. 2012. Invest Ophthalmol Vis Sci 53:685-692 and Cursiefen, C., et al. 2004. Invest Ophthalmol Vis Sci 45:1117-1124. Two 11-0 sutures were placed intrastromally about 2 mm from the limbus at the 12 and 6 o'clock positions in the Prox1-EGFP reporter mice. After surgery, a veterinary ophthalmic ointment was applied to prevent infection. Sutures were left in place for 7 days. To assess the effect of galectin inhibitors on suture-induced lymphangiogenesis, 10 μL of vehicle (PBS), TDG (200 mM in PBS), or Gal-8N (15 μg in PBS) were subconjunctivally injected on post-surgery days 0, 2, 4 and 6 using a 32 gauge needle with a 10 μL syringe (Hamilton). On day 7 post-surgery, mouse corneas were harvested and processed for staining with anti-LYVE-1 as described in examples herein. The areas of lymphatic vessels covering the whole corneas were calculated.
There is much interest in finding ways to inhibit prolymphangiogenic factors as means of suppressing cancer metastasis, transplant rejection and chronic inflammation. To determine whether galectins can be targeted to control lymphangiogenesis, a well-established in vivo model of lymphangiogenesis was used. […] At the end of the treatment period, lymphatic vessel areas were quantified.

[4] = test system: VEGF-C-induced LEC sprouting; assay: LEC sprouting assay: VEGF-C-induced sprouting; assay type: cell-based, human
Method: LEC spheroids were generated by seeding primary LECs at passage 4 or 5 in each well of 384-well hanging-drop plates (3D Biomatrix) in complete EGM-2 MV medium containing 0.25% methyl cellulose according to the manufacturer's instructions (750 cells/well). After 18 hours, LEC spheroids were collected, resuspended in serum-free EBM-2 basal medium, and mixed with collagen solution (PureCol collagen, Advanced BioMatrix, 2.2 mg/ml in M199 medium, pH adjusted to 7.4 with NaHCO3 and NaOH). Aliquots of the LEC spheroid/collagen mixture (250 μl/well of 48-well plate) were incubated in the presence or absence of various test agents for 24 hr. At the end of the incubation period, spheroids were stained with Calcein AM (Invitrogen, 1 μg/mL, 37° C., and 30 min). Fluorescent images were acquired using the EVOS FL cell imaging system, pixels were inverted for better visualization and cumulative length of each sprout was calculated. Results were expressed as fold change compared to corresponding controls. It was observed that sprout lengths vary from passages to passages. Test agents used included thiodigalactoside (10 to 50 mM, Carbosynth), 3′-sialyl lactose (2 to 10 mM, Carbosynth), 6′-sialyl lactose (2 to 10 mM, Carbosynth), LY294002 (20 μM, Abeam), U0126 (20 μM, Abeam), PD0325901 (1 μM, Selleckchem), human VEGFR-3-Fc chimera (10 μg/ml, R&D), human VEGFR-2-Fc chimera (10 μg/ml, R&D), Avastin (10 μg/ml, bevacizumab, Genentech/Roche), human control IgG (10 μg/ml, Southern Biotech), anti-human podoplanin functional grade antibody (10 μg/ml, eBioscience), and rat IgG2a κ isotype control functional grade antibody (10 μg/ml, eBioscience).
In this assay, the LEC spheroids were treated with VEGF-C (50 ng/ml) in the presence or absence of 0.75 μM of Gal-8 for 24 hours, and then accumulated sprout lengths were quantified. […] Synergistic effect of Gal-8 on VEGF-C-induced LEC sprouting was dose-dependent. […] At concentrations >0.5 μM Gal-8, there was no further increase in the degree of VEGF-C-induced lymphangiogenesis (FIG. 4C).
To further characterize the role of carbohydrate-mediated recognition in VEGF-C-induced lymphangiogenesis, LEC spheroids were stimulated with VEGF-C (50 ng/ml) in the presence or absence of three different galectin inhibitors. […] Therefore, the data establishes the critical role of Gal-8-mediated carbohydrate-mediated recognition in VEGF-C-induced lymphangiogenesis.

PDPN = assay: Cell surface expression of PDPN by flow cytometry; assay type: cell-based, human; conditions: 30 min post-treatment; VEGF-C 50 ng/ml
Method: (§1) Primary LECs were serum-starved overnight in basal EBM-2 medium. The cells were incubated with or without VEGF-C (50 ng/ml, PeproTech) or Gal-8 (0.2 μM) in serum-free EBM-2 medium for 10 and 30 min. At the end of the incubation period, cells were lifted with StemPro® Accutase® cell dissociation reagent (Invitrogen), washed with PBS and fixed with 4% paraformaldehyde/PBS on ice for 10 min, and were then stained using rat anti-human PDPN (1:500, BioLegend) and mouse anti-human VEGFR-3 (clone 9D9F9) (1:100, BioLegend) primary antibodies in cell staining buffer (BioLegend, 45 min on ice) and Alexa Fluor® 488 donkey anti-rat and Alexa Fluor® 647 anti-mouse secondary antibodies (1:1000, Invitrogen, 30 min on ice). For negative control, the primary antibodies were omitted. The stained cells were fixed with 2% paraformaldehyde/PBS, analyzed with BD FACSCalibur, and the mean fluorescence intensity of VEGFR-3 and PDPN were quantified with the FlowJo software (version 9.5.2).

VEGFR-3 = assay: Cell surface expression of VEGFR-3 by flow cytometry; assay type: cell-based, human; conditions: Gal-8 0.2 μM or VEGF-C 50 ng/ml
Method: as §1

mouse corneas [5] = assay: Corneal mouse micropocket lymphangiogenesis assay; assay type: in vivo; conditions: for mean lymphatic vessel areas: seven days
Method: The corneal micropocket lymphangiogenesis assay was performed using implants containing a test agent, hydron (polyhydroxylmethylmethacrylate), and sucralfate (Cao, R., et al. 2011. Nat Protoc 6:817-826; Rogers, M. S., et al. 2007. Nat Protoc 2:2545-2550). Test agents included full-length Gal-8 (40-320 ng/pellet) and VEGF-C (160 ng/pellet). Implants containing hydron and sucralfate alone served as negative controls. The mice were anesthetized by intraperitoneal injection of a mixture of ketamine (90-120 mg/kg) and xylazine (10 mg/kg). The eyes were topically anesthetized with proparacaine and were gently proptosed (forwardly displaced) with forceps. Using a corneal blade and a stereoscope, intrastromal linear keratotomy was performed about 2 mm from the limbus. Using a von Graefe knife (Miltex), a pocket was extended towards the limbus, and the pellet was maneuvered into the pocket. The wound was coated with a veterinary ophthalmic ointment (Akorn) to prevent infection. Mouse corneas were harvested 7 days after pellet implantation, fixed in 4% paraformaldehyde/PBS (1 hour at 4° C.), washed with PBS, and fixed again in iced acetone (15 min at −20° C.). To quantitate the extent of lymphangiogenesis in Prox-1-EGFP reporter mice, flat mounts of the dissected corneas were evaluated by fluorescence microscopy. Fluorescent images were acquired by EVOS FL cell imaging system (Invitrogen), and vessel areas were calculated using the formula (Rogers, M. S., et al. 2007. Nat Protoc 2:2545-2550): vessel area=pellet distance×vessel length×clock hours×[…]. To quantitate the extent of lymphangiogenesis in WT and PDPN-deficient mice, corneas were stained with eFluor 570-anti-mouse LYVE-1 (clone ALY7, eBioScience, and 1:75) in 10% goat serum/0.2% Triton X-100/PBS overnight, 4° C. After several washes with 0.2% Triton X-100/PBS, the corneas were flattened and mounted with VECTASHIELD mounting medium (Vector Laboratories) and evaluated by fluorescence microscopy. In some examples, for comparisons, corneas were stained with Alexa Fluor® 488-anti-mouse CD31 (clone MEC13.3, 1:100, BioLegend) to visualize blood vessels.

Molecule	effect on Gal-8-induced LEC sprouting (in words) [1]	effect on VEGF-A-induced LEC sprouting (in words) [2]	effect on suture-induced corneal lymphangiogenesis (mouse corneas [3])	effect on VEGF-C-induced LEC sprouting (in words) ([4]; VEGF-C 50 ng/ml, 24 h)	effect on the synergistic effect of Gal-8 on VEGF-C-induced sprouting ([4]; VEGF-C plus Gal-8)	decrease of cell surface expression of PDPN (PDPN)	decrease of cell surface expression of VEGFR-3 (VEGFR-3)	extent of vessel formation in galectin-8 KO mice compared to WT (mouse corneas [5]; 160 ng pellet, one week)	mean lymphatic vessel areas (mouse corneas [5]; PDPN KO mice, 160 ng pellet) [mm^2]	mean lymphatic vessel areas (mouse corneas [5]; WT mice, 160 ng pellet) [mm^2]	lymphangiogenesis induced by pellet in cornea (in words) (mouse corneas [5]; one week after implantation, Gal-8 40-320 ng/pellet, VEGF-C 160 ng, WT or Prox1-EGFP mice)
Avastin: an antibody targeted against VEGF-A	had no effect	almost completely abolished	–	–	–	–	–	–	–	–	–
OC[C@H]1O[C@@H](S[C@@H]2O[C@H](CO)[C@H](O)[C@H](O)[C@H]2O)[C@H](O)[C@@H](O)[C@H]1O [TDG, thiodigalactoside, reference compound]	almost completely inhibited	–	significantly suppressed	inhibited	almost completely inhibited	–	–	–	–	–	–
B1	–	–	–	–	–	about 5%	about 40%	significantly reduced	0.67	1.35	markedly induced both hemangiogenesis and lymphangiogenesis; also recorded: induce robust growth of lymphatic vessels
